Test results from paper PMC9046991, “Preparation, Characterization, and Cytoprotective Effects on HUVECs of Fourteen Novel Angiotensin-I-Converting Enzyme Inhibitory Peptides From Protein Hydrolysate of Tuna Processing By-Products” (Frontiers in Nutrition, 2022).
Where two headings read alike, the source gives them in different places. Where a SMILES comes first, the peptide text is derived from it.

Columns and labels:
HUVECs [1] = assay: NO production in HUVECs; assay type: cell-based, human; settings: 24 h, mean ± SD
Excerpt: NO and ET-1 productions in treated cells were obtained by employing human NO and ET-1 assay kits according to the manufacturers' protocol.

HUVECs [2] = assay: HUVEC cell viability (MTT assay); assay type: cell-based, human
Method: After thawing, HUVECs were maintained in cultured flasks and cultured to confluence in DMEM containing 1% penicillin-streptomycin liquid, supplemented with 10% FBS. HUVECs received the culturing process at 37°C in a humidified 5% CO2 atmosphere ([34]).
The cytotoxicity of STAP3, STAP4, STAP7, and STAP11 on HUVECs was assessed using MTT assay on manufacturer's instructions ([34]). In brief, HUVECs received the incubation in 96-well plates at a density of 0.8 × 10^4 cells per well with 180 μl completed DMEM. Following the confluence of 50–60% in the 96-well plates, cells were treated with 20 μl peptides under-designed concentrations (100, 200, and 400 μM) and further cultured for 24 h at 37°C. Subsequently, cells were added with 20 μL MTT solutions (5 mg/mL) and incubated for 4 h. Finally, DMSO was added into each well and the absorbance (A) at 490 nm was determined. The cell viability was calculated as:
Cell viability(% of blank control)=(Aexperiment group/Acontrol group)×100.

ACE = settings: cited from earlier work; for IC50: data in the AHTPDB database, read-out: IC50 (ACEi ability)
Excerpt: Then, Ser residue, especially its hydroxyl group, should play a vital effect on the ACEi capability of STAP4, STAP7, and STAP11 ([67]). Yust et al. made clear that short peptide sequences ...

HUVECs [3] = assay: ET-1 secretion of HUVECs; assay type: cell-based, human; settings: NE 0.5 μM, 24 h, mean ± SD
Method: The NO and ET-1 contents of HUVECs were determined after a 24 h treatment of ACEi peptides (STAP3, STAP4, STAP7, and STAP11, respectively) ([34]). HUVECs received the plating process in 6-well plates and the treating process with Cap (1 μM), NE (0.5 μM), designed concentrations of ACEi peptides (100, 200, and 400 μM) for 24 h, or treated with both NE (0.5 μM) and 200 μM ACEi peptides for 24 h. NO and ET-1 productions in treated cells were obtained by employing human NO and ET-1 assay kits according to the manufacturers' protocol.

[4] = 100, 200 and 400 μM, 24 h, MTT, % of blank control

## C[C@H](CS)C(=O)N1CCC[C@H]1C(=O)O [Cap, captopril]
HUVECs [1]; Cap 1 μM, positive control
  NO level: 65.96 ± 1.83 μmol/gprot

## CC(C)C[C@H](N)C(=O)N1CCC[C@H]1C(=O)N[C@@H](CCCNC(=N)N)C(=O)N[C@@H](CO)C(=O)O [STAP11, Leu-Pro-Arg-Ser] (H-LPRS-OH)
HUVECs [2]; 400 µM, SD
  cell viability: 91.07 ± 1.36%
HUVECs [2]; [4]
  cell viability: no significant influence on the proliferation of HUVECs

## MIFPGAGGPEL [ACEi peptide in the AHTPDB database]
ACE
  IC50: 30 nM

## NC[C@H](O)c1ccc(O)c(O)c1 [NE, norepinephrine]
HUVECs [1]; NE 0.5 μM
  NO level: 24.25 ± 0.63 μmol/gprot
HUVECs [3]
  ET-1 secretion: 140.23 ± 5.81 pg/mL

## WRKER [ACEi peptide from Antarctic krill]
ACE; peptides from Antarctic krill
  IC50 (ACEi): 3285 µg/mL

## IRWCT [ACEi peptide in the AHTPDB database]
ACE
  IC50: 1000 nM

## VFPS [ACEi peptide in the AHTPDB database]
ACE
  IC50: 460 nM

## PYVRYL [ACEi peptide in the AHTPDB database]
ACE
  IC50: 1900 nM

## CSCC[C@H](N)C(=O)N[C@@H](CCCCN)C(=O)N[C@@H](CCCCN)C(=O)N[C@@H](CO)C(=O)O [STAP7, Met-Lys-Lys-Ser] (H-MKKS-OH)
HUVECs [2]; [4]
  cell viability: no significant influence on the proliferation of HUVECs

## RYRP [ACEi peptide from protein hydrolysate of Saurida elongate]
ACE; peptide from Saurida elongate
  IC50 (ACEi): 3350 µg/mL

## C[C@@H](O)[C@H](N)C(=O)N[C@@H](CCC(=O)O)C(=O)O [STAP1, Thr-Glu] (H-Thr-Glu-OH)
HUVECs [2]; 100 µM, SD
  cell viability: 108.52 ± 5.19%

## CSCC[C@H](N)C(=O)N[C@@H](CCC(=O)O)C(=O)N[C@@H](CCCCN)C(=O)N[C@@H](CO)C(=O)O [STAP4, Met-Glu-Lys-Ser] (H-MEKS-OH)
HUVECs [2]; [4]
  cell viability: no significant influence on the proliferation of HUVECs

## EHPVL [ACEi peptide from stone fish]
ACE; peptides from stone fish
  IC50 (ACEi): 1680 µg/mL

## LGPLGHQ [ACEi peptide from skate (Okamejei kenojei)]
ACE; peptides from Okamejei kenojei
  IC50 (ACEi): 3490 µg/mL
ACE; peptides from skate
  IC50 (ACEi): 4220 µg/mL

## MVGSAPGVL [ACEi peptide from skate (Okamejei kenojei)]
ACE; peptides from Okamejei kenojei
  IC50 (ACEi): 3090 µg/mL
ACE; peptides from skate
  IC50 (ACEi): 3090 µg/mL

## LAPPTM [ACEi peptide from stone fish]
ACE; peptides from stone fish
  IC50 (ACEi): 1310 µg/mL

## EVLIQ [ACEi peptide from stone fish]
ACE; peptides from stone fish
  IC50 (ACEi): 1440 µg/mL
